In patent publication US11672959B2, “Expandable member systems and methods for drug delivery” (Intersect ENT, Inc., priority 2019, dated 2023):

Tests used:
[1] = MF released from drug layered balloon on inflation in sheep frontal sinus ostia; type: in vivo
Method: (§1) The amount of mometasone furoate transferred to the ostia (total MF released) was measured after inflation of balloons having a drug layer including the listed dose of mometasone furoate drug crystals and poly(ethylene glycol) and polysorbate as the excipients.
Expandable members were made by spray coating 6 mm×20 mm semi-compliant balloons with a drug layer formulation. The drug layer formulation included either a 1500 μg or 3000 μg dose of mometasone furoate, poly(ethylene glycol), and a polysorbate. The drug layered balloons were then exposed in an acetone solvent vapor for 30 minutes.
(§2) In this Example, drug layered balloons were made according to Example 1 and used to dilate sheep frontal ostia.

[2] = tissue MF concentration after balloon expansion in sheep frontal sinus ostia; conditions: for concentration at 30 days / concentration at 7 days / concentration at 14 days / concentration at 1 hour: sheep; for concentration at 1 hour: Approx. 1 hour after inflation
Method: as §1, §2

[3] = tissue concentration of mometasone furoate after balloon expansion in Eustachian tubes (LCMS); type: in vivo, domestic sheep; conditions: sheep, Eustachian tube mucosa, 1500 μg balloon expanded to 12 atm, read-out: maximum mometasone furoate tissue concentration
Method: The Eustachian tubes of eight domestic sheep were accessed transnasally using balloon catheters having drug layers containing 1500 μg of mometasone furoate. The balloon catheters were made as described in Example 1. A singe balloon catheter was expanded to 12 atm of pressure to deliver the mometasone furoate crystals to Eustachian tube tissue and to dilate each contralateral Eustachian tube at its proximal opening. The animals were sacrificed at either 7 days or 30 days after balloon expansion, and mucosa from each Eustachian tube collected and frozen. Mometasone furoate concentration was then quantified using liquid chromatography mass spectrometry (LCMS).

[4] = plasma MF concentration after balloon expansions in sheep frontal sinus ostia; type: in vivo
[5] = in vitro release rates for expandable members having varying amounts of crystalline mometasone furoate (FIG. 4); type: physicochemical
Source text: FIG. 4 is a graph comparing the in vitro release rates for expandable members having varying amounts of crystalline mometasone furoate. The amount of crystalline and amorphous drug provided in the drug layer will generally vary depending on the active agent employed, target tissue being treated, therapeutic drug level desired in the target tissue, and/or the drug release profile desired. For example, the ratio of amorphous to crystalline drug in the drug layer can be about 1:3, 1:2, 1:1, 2:1, or 3:1. A higher amorphous to crystalline drug ratio can lead to quicker tissue absorption due to the higher solubility of amorphous drug. In turn, a higher crystalline to amorphous drug ratio can lead to longer residence time of the drug on tissue. […] Thus, a combination of amorphous and crystalline drug in the drug layer can provide immediate release of the active agent to begin treatment of a nose, ear, or throat condition, as well as sustained release of the active agent into the target tissue, as illustrated by the moderate in vitro release rates for drug layers subjected to solvent vapor annealing (SVA) in FIG. 4. In some variations, the drug layer is formed to include about 60% of the active agent as drug crystals. In one variation, the drug layer is formed to include mometasone furoate, where about 60% of the mometasone furoate is in crystalline form. The ratio of crystalline to amorphous drug in the drug layer can be adjusted during the drug layering process onto the expandable member, e.g., during the solvent vapor annealing process, as further described below, or during sterilization.

[6] = frontal sinus ostia tissue, 3000 μg, Average Tissue MF Concentrations, Frontal Sinus Ostia, MF Dose 3000 μg, Study Arm 1, 2
[7] = nasal passage tissue, 3000 μg, Average Tissue MF Concentrations, Nasal Passage, MF Dose 3000 μg, Study Arm 1, 2

Total MF Released ([1]; Dose 1500 μg, 36.4% drug crystals, crystal size 78.7 μm, PEG and polysorbate excipients): 350 µg
Total MF Released ([1]; Dose 1500 μg, 62.5% drug crystals, crystal size 128.1 μm): 478 µg
Total MF Released ([1]; Dose 3000 μg, 60.4% drug crystals, crystal size 91.1 μm): 1778 µg
Total MF Released ([1]; Dose 3000 μg, 67.4% drug crystals, crystal size 132.6 μm): 1058 µg
MF Release (% MF Dose) ([1]; MF Dose 1500 μg, 1st inflation, Study Arm 2 (treatment)): 35 % MF Dose
Average MF Release per Inflation ([1]; MF Dose 1500 μg, 1st inflation, Study Arm 2 (treatment), n=4): 524 µg
MF Release (% MF Dose) ([1]; MF Dose 1500 μg, 2nd inflation, Study Arm 1 (treatment)): 12 % MF Dose
Average MF Release per Inflation ([1]; MF Dose 1500 μg, 2nd inflation, Study Arm 1 (treatment), n=4): 176 µg
Average MF Release per Inflation ([1]; MF Dose 1500 μg, Average over first two inflations): 350 µg
Total MF Released ([1]; MF Dose 1500 μg, Table 7): 350 µg
Average % MF Release per Inflation ([1]; MF Dose 3000 μg, Study Arm 1, two expansions): 30%
Average MF Release per Inflation ([1]; MF Dose 3000 μg, Study Arm 1, two expansions, n=32 devices): 889 µg
Average % MF Release per Inflation ([1]; MF Dose 3000 μg, Study Arm 2 (bloody sheep frontal sinus ostia)): 28%
Average MF Release per Inflation ([1]; MF Dose 3000 μg, Study Arm 2 (bloody sheep frontal sinus ostia), n=4 devices): 854 µg
average tissue MF concentrations for the frontal sinus ostia relative to therapeutic levels ([2]; MF Dose 3000 μg, all time points): at or above therapeutic levels
concentration at 30 days ([2]; frontal sinus ostia tissue, 1500 μg, Average 30 day tissue MF Concentration in Sinus Ostia, 36.4% drug crystals, crystal size 78.7 μm, 30 days): 5000 ng/g
concentration at 30 days ([2]; frontal sinus ostia tissue, 1500 μg, Average 30 day tissue MF Concentration in Sinus Ostia, 62.5% drug crystals, crystal size 128.1 μm, 30 days): 1000 ng/g
concentration at 30 days ([2]; frontal sinus ostia tissue, 1500 μg, MF Concentration Frontal Sinus Ostia Tissue, MF Dose 1500 μg, explant timepoint 30 days, two expansions): 5000 ng/g
concentration at 30 days ([2]; frontal sinus ostia tissue, 1500 μg, average tissue MF concentrations for the frontal sinus ostia, MF dose 1500 μg, 30 days, compared with therapeutic level): > 100 ng/g
concentration at 30 days ([2]; frontal sinus ostia tissue, 1500 μg, mometasone furoate concentrations in tissue at 30 days, crystals sized less than 80 μm, less than 60% of the drug layer containing drug crystals): ~5000 ng/g
concentration at 30 days ([2]; frontal sinus ostia tissue, 3000 μg, Average 30 day tissue MF Concentration in Sinus Ostia, 60.4% drug crystals, crystal size 91.1 μm, 30 days): 100 ng/g
concentration at 30 days ([2]; frontal sinus ostia tissue, 3000 μg, Average 30 day tissue MF Concentration in Sinus Ostia, 67.4% drug crystals, crystal size 132.6 μm, 30 days): 2000 ng/g
concentration at 7 days [2, 6]: 9890 ng/g
concentration at 14 days [2, 6]: 1250 ng/g
concentration at 30 days ([2]; frontal sinus ostia tissue, 3000 μg, Average Tissue MF Concentrations, Frontal Sinus Ostia, MF Dose 3000 μg, Study Arm 1, 2, 30 days): 100 ng/g
concentration at 1 hour [2, 6]: 142000 ng/g
concentration at 30 days ([2]; in vivo, 30 day tissue concentrations (in sheep frontal sinus ostia)): ≥ 100 ng/g
concentration at 7 days [2, 7]: 60 ng/g
concentration at 14 days [2, 7]: 20 ng/g
concentration at 30 days ([2]; nasal passage tissue, 3000 μg, Average Tissue MF Concentrations, Nasal Passage, MF Dose 3000 μg, Study Arm 1, 2, 30 days): 1380 ng/g
concentration at 1 hour [2, 7]: 4730 ng/g
concentration at 7 days ([3]; 7 days): 47000 ng/g
concentration at 30 days ([3]; 30 days): 200 ng/g
plasma levels ([4]; MF dose 1500 μg, 30 days post the two expansions): below the limit of quantitation
in vitro release rate ([5]; drug layer contains the active agent only as crystals (100% crystals)): slowest
in vitro release rate ([5]; drug layer contains the active agent only in amorphous form (0% crystals)): fastest
in vitro release rates ([5]; drug layers subjected to solvent vapor annealing (SVA), amorphous and crystalline drug): moderate
SMILES: C[C@@H]1C[C@H]2[C@@H]3CCC4=CC(=O)C=C[C@]4(C)[C@@]3(Cl)[C@@H](O)C[C@]2(C)[C@@]1(OC(=O)c1ccco1)C(=O)CCl [MF, mometasone furoate]
MF Concentration Plasma ([4]; MF Dose 1500 μg, 30 days, analytical range 20.0-1000.0 pg/mL): BLQ (Below Limit of Quantitation (≤20.0 pg/mL))
